Experimental data taken from ChEMBL document CHEMBL1201862, “PubChem BioAssay data set” (2004).
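A five-concentration, 48-hour dose response in 96-well plates underlies each endpoint, interpolated linearly between surrounding concentrations. GI50 = concentration required for 50% inhibition of growth.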 Activity calls are given as the source filed them. Rule as the data show it: active = GI50 up to about 1.1 µM and inactive = higher.

Tests used:
Test in all cases: NCI anticancer screen, dose series, 48 h
[1] = tested on: 786-0
[2] = tested on: EKVX
[3] = tested on: HL-60
[4] = tested on: IGROV-1
[5] = tested on: KM12
[6] = tested on: MCF7
[7] = tested on: MDA-MB-231
[8] = tested on: MDA-N
[9] = tested on: MOLT-4
[10] = tested on: NCI-H226
[11] = tested on: NCI-H460
[12] = tested on: OVCAR-8
[13] = tested on: RXF 393
[14] = tested on: SF-539
[15] = tested on: SN12C
[16] = tested on: SR
[17] = tested on: T47D
[18] = tested on: UACC-257
[19] = tested on: UO-31
[20] = tested on: KM-20L2

SMILES	GI50 [1]	GI50 [2]	GI50 [3]	GI50 [4]	GI50 [5]	GI50 [6]	GI50 [7]	GI50 [8]	GI50 [9]	GI50 [10]	GI50 [11]	GI50 [12]	GI50 [13]	GI50 [14]	GI50 [15]	GI50 [16]	GI50 [17]	GI50 [18]	GI50 [19]	GI50 [20]
CC1(C)Oc2ccc3ccc(=O)oc3c2C(O)C1O (stereo unspecified)	45 µM (inactive)	48.1 µM (inactive)	33.3 µM (inactive)	33.2 µM (inactive)	31.9 µM (inactive)	33.9 µM (inactive)	71.8 µM (inactive)	35.1 µM (inactive)	21.7 µM (inactive)	48.3 µM (inactive)	40 µM (inactive)	34 µM (inactive)	67.1 µM (inactive)	22.9 µM (inactive)	> 100 µM (inactive)	59.4 µM (inactive)	35.3 µM (inactive)	29.4 µM (inactive)	27.5 µM (inactive)	
CN(C)Cc1cc(/N=N/c2ccc(Cl)cc2)ccc1O	12.8 µM (inactive)	18.3 µM (inactive)	13.5 µM (inactive)	15.8 µM (inactive)	17.3 µM (inactive)	17.4 µM (inactive)	16.1 µM (inactive)	19.5 µM (inactive)	15.2 µM (inactive)	14.6 µM (inactive)	13.8 µM (inactive)	16.9 µM (inactive)	13.9 µM (inactive)	18.1 µM (inactive)	16.9 µM (inactive)	16.4 µM (inactive)	12.4 µM (inactive)	18.7 µM (inactive)	11.7 µM (inactive)	
Cc1ccc(/C=N/Nc2nncc3ccccc23)s1	> 52.2 µM (inactive)	> 100 µM (inactive)	> 100 µM (inactive)	> 61 µM (inactive)	> 46.2 µM (inactive)	19.5 µM (inactive)	33 µM (inactive)	> 61.4 µM (inactive)	> 100 µM (inactive)	> 69.2 µM (inactive)	> 100 µM (inactive)	65.2 µM (inactive)	> 100 µM (inactive)	52.6 µM (inactive)	> 100 µM (inactive)	> 100 µM (inactive)	> 100 µM (inactive)	> 100 µM (inactive)	> 100 µM (inactive)	
CC(=O)O[C@H]1CCC2[C@@H]3CCC4=C(O)c5nocc5C[C@]4(C)C3CC[C@@]21C (stereo partly specified)	> 100 µM (inactive)	> 100 µM (inactive)		> 100 µM (inactive)	> 100 µM (inactive)				> 100 µM (inactive)	> 100 µM (inactive)	> 100 µM (inactive)	> 100 µM (inactive)	> 100 µM (inactive)	> 100 µM (inactive)	> 100 µM (inactive)			> 100 µM (inactive)	> 100 µM (inactive)	> 100 µM (inactive)
O=C1C(Cl)=C(N2CCN(c3ccccn3)CC2)C(=O)c2c(O)ccc(O)c21	1.25 µM (inactive)	4.27 µM (inactive)	0.128 µM (active)	1.63 µM (inactive)	3.1 µM (inactive)	1.42 µM (inactive)	1.74 µM (inactive)	1.21 µM (inactive)	0.456 µM (active)	4.69 µM (inactive)	3.07 µM (inactive)	2.12 µM (inactive)	1.74 µM (inactive)	1.79 µM (inactive)	1.88 µM (inactive)	0.881 µM (active)	1.3 µM (inactive)	1.84 µM (inactive)	1.87 µM (inactive)	
CC(Cc1cccc2c1Nc1ccccc1S2)N(C)CCO (stereo unspecified)	> 100 µM (inactive)	> 100 µM (inactive)	> 100 µM (inactive)	> 100 µM (inactive)	> 100 µM (inactive)	> 100 µM (inactive)	> 100 µM (inactive)	> 100 µM (inactive)	> 100 µM (inactive)	> 100 µM (inactive)	> 100 µM (inactive)	> 100 µM (inactive)	> 100 µM (inactive)	> 100 µM (inactive)	> 100 µM (inactive)	> 100 µM (inactive)	> 100 µM (inactive)	> 100 µM (inactive)	> 100 µM (inactive)	
CCOc1cc(NC(C)=O)ccc1C(=O)NNC(=O)c1ccccc1OC(C)=O	4.53 µM (inactive)	5.18 µM (inactive)	4.28 µM (inactive)	3.03 µM (inactive)	7.08 µM (inactive)	6.07 µM (inactive)	4.42 µM (inactive)	12.5 µM (inactive)	0.995 µM (active)	5.19 µM (inactive)	4.04 µM (inactive)	6.3 µM (inactive)	3.41 µM (inactive)	12.5 µM (inactive)	5.24 µM (inactive)	1.05 µM (active)	8.55 µM (inactive)	4.92 µM (inactive)	3.86 µM (inactive)	
C[C@]12CCC3[C@@H](CC[C@@H]4c5nonc5CC[C@]34C)C1CC[C@@H]2O (stereo partly specified)	25.3 µM (inactive)	23.8 µM (inactive)	18.3 µM (inactive)	41.8 µM (inactive)	37.8 µM (inactive)				23.3 µM (inactive)	38.3 µM (inactive)	25.9 µM (inactive)	35.8 µM (inactive)	24.8 µM (inactive)	17.4 µM (inactive)	22.1 µM (inactive)			19.8 µM (inactive)	> 10 µM (inactive)	43.7 µM (inactive)
Nc1cccc(C2CCCc3c2[nH]c2ccccc32)c1 (stereo unspecified)	18.2 µM (inactive)	18.5 µM (inactive)	19.5 µM (inactive)	17.3 µM (inactive)	17.5 µM (inactive)	21.8 µM (inactive)	15.8 µM (inactive)	17.5 µM (inactive)	20.6 µM (inactive)	25.7 µM (inactive)	19.5 µM (inactive)	17.7 µM (inactive)	15.3 µM (inactive)	20.3 µM (inactive)	17 µM (inactive)	9.08 µM (inactive)	12.1 µM (inactive)	23.9 µM (inactive)	26 µM (inactive)	
Cc1ccc(C(=O)N/N=C(\N=N\c2cccc(Cl)c2)c2ccc(N(CCC#N)CCC#N)cc2C)cc1	82 µM (inactive)	> 100 µM (inactive)	56.9 µM (inactive)	> 100 µM (inactive)	> 100 µM (inactive)	> 100 µM (inactive)	> 100 µM (inactive)	> 100 µM (inactive)	41.5 µM (inactive)	> 100 µM (inactive)	> 100 µM (inactive)	79.4 µM (inactive)	29.4 µM (inactive)	> 100 µM (inactive)	> 100 µM (inactive)	> 100 µM (inactive)	69 µM (inactive)	> 100 µM (inactive)	> 100 µM (inactive)	
[N-]=[N+]=Nc1ccc2c(c1)Sc1ccccc1N2CCCCN1CCN(C(=O)CCNC(=O)Cc2ccc(C(=O)c3ccccc3)cc2)CC1	3.76 µM (inactive)	3.18 µM (inactive)	2.54 µM (inactive)	6.1 µM (inactive)	3.31 µM (inactive)	2.33 µM (inactive)	4.74 µM (inactive)	3.75 µM (inactive)	1.54 µM (inactive)	13.6 µM (inactive)	3.72 µM (inactive)	7.03 µM (inactive)	10.9 µM (inactive)	6.27 µM (inactive)	7.26 µM (inactive)	2.08 µM (inactive)	5.36 µM (inactive)	4.05 µM (inactive)	5.32 µM (inactive)	
COc1ccc(C(OCC2OC(n3ccc(NC(=O)c4ccccc4)nc3=O)C(O)C2O)(c2ccccc2)c2ccccc2)cc1 (stereo unspecified)	2.12 µM (inactive)	2.72 µM (inactive)	2.24 µM (inactive)	2.08 µM (inactive)	21.1 µM (inactive)	2.22 µM (inactive)	2.13 µM (inactive)	1.92 µM (inactive)	2.1 µM (inactive)	2.61 µM (inactive)	1.98 µM (inactive)	1.78 µM (inactive)	2.97 µM (inactive)	2.34 µM (inactive)	1.82 µM (inactive)	2.39 µM (inactive)	3.54 µM (inactive)	8.39 µM (inactive)	3.42 µM (inactive)	
O=C(COc1ccc(OCC(=O)N2C(=O)CN(c3ccccc3)C2=S)cc1)N1C(=O)CN(c2ccccc2)C1=S	> 57 µM (inactive)	> 53.6 µM (inactive)	> 100 µM (inactive)	> 25 µM (inactive)	> 51.5 µM (inactive)	> 54.3 µM (inactive)	> 50.1 µM (inactive)	> 63.1 µM (inactive)	> 25 µM (inactive)	> 100 µM (inactive)	> 57.7 µM (inactive)	> 55.2 µM (inactive)	55.8 µM (inactive)	> 100 µM (inactive)	> 59.2 µM (inactive)	> 25 µM (inactive)	> 58.3 µM (inactive)	> 54.7 µM (inactive)	> 56.6 µM (inactive)	
COC(=O)/C=C\C(C#N)(C#N)/N=C/c1ccccc1	1.63 µM (inactive)	12.8 µM (inactive)	2.25 µM (inactive)	12.9 µM (inactive)	17.5 µM (inactive)	2.09 µM (inactive)	15.6 µM (inactive)	4.44 µM (inactive)	0.953 µM (active)	9.55 µM (inactive)	18.7 µM (inactive)	1.91 µM (inactive)	1.94 µM (inactive)	3.78 µM (inactive)	11.1 µM (inactive)	0.897 µM (active)	1.72 µM (inactive)	5.36 µM (inactive)	2.42 µM (inactive)	
C1=Cc2nc1c(-c1ccncc1)c1ccc([n-]1)c(-c1ccncc1)c1nc(c(-c3ccncc3)c3ccc([n-]3)c2-c2ccncc2)C=C1.[Zn+2]	> 100 µM (inactive)	> 100 µM (inactive)	> 100 µM (inactive)	> 100 µM (inactive)	> 100 µM (inactive)				> 100 µM (inactive)	> 100 µM (inactive)	> 100 µM (inactive)	> 100 µM (inactive)		> 100 µM (inactive)	> 100 µM (inactive)			> 100 µM (inactive)	> 100 µM (inactive)	> 100 µM (inactive)
